Data set [1] is described as follows: Lipophilicity, logD of compound in octanol/aqueous buffer at pH 7.4 incubated for 2 hrs by shake flask method. The format is physicochemical. The following applies: for logD at 2 h: octanol/aqueous buffer, pH 7.4.
A short description of data set [2]: Intrinsic clearance in human liver microsome at 1 uM incubated for 30 mins in presence of NADPH by LC-MS/MS analysis. The conditions noted are these: for microsomal CLint at 1 µM: liver microsomes, read-out: CLH. The format is ADME, microsomes. (Liver microsomes are vesicles of endoplasmic reticulum, rich in cytochrome P450 enzymes.)
For data set [3], the target named is E3 ubiquitin-protein ligase CBL-B (Homo sapiens, UniProt Q13191). Briefly: Inhibition of Cbl-b (unknown origin) by TR-FRET assay.

Structures are written as SMILES.

E3 ubiquitin-protein ligase CBL-B, sequence (Q13191 whole entry): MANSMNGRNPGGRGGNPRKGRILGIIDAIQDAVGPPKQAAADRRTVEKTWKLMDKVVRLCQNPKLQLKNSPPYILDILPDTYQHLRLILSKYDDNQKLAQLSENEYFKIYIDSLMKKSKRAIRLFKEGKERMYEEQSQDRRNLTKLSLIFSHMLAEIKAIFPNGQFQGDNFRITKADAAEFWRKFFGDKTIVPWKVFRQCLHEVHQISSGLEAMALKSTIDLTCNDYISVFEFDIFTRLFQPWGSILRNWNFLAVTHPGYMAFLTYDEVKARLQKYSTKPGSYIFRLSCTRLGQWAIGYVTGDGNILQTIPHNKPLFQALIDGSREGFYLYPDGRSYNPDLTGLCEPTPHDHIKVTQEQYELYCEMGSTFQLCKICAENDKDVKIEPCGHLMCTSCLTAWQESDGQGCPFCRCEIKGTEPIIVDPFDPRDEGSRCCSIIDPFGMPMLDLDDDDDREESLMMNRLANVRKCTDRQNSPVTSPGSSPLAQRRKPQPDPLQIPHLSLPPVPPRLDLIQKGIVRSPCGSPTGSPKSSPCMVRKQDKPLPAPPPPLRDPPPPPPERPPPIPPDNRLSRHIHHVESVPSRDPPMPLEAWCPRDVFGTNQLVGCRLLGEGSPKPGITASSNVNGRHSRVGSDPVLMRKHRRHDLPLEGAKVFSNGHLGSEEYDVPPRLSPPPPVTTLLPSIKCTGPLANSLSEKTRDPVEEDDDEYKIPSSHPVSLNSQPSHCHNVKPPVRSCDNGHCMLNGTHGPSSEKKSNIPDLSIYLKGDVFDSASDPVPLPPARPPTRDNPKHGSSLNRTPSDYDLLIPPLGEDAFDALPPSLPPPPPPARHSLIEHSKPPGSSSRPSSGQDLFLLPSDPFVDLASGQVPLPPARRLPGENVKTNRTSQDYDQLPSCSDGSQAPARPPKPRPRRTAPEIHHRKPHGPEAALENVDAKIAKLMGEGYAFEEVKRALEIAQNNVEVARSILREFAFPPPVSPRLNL

The logD is lipophilicity at a set pH, counting ionised and neutral species. In data set [1], `C[C@H]1CCCN(Cc2cc3c(c(C(F)(F)F)c2)CN(c2cccc([C@]4(c5nncn5C)C[C@@H](C)C4)c2)C3=O)C1` came in with a logD at 2 h of 4. Further, in data set [2], the microsomal CLint at 1 µM is 130 µL/min/mg.

As a reminder, the IC50 is the concentration at which inhibition is half-maximal. In data set [1], `CNC(=O)[C@]1(c2cccc(-n3nc4c(C(F)(F)F)cc(CN5CCC[C@H](C)C5)cn4c3=O)c2)C[C@H](C)C1` returned a logD at 2 h of 4.3. In addition, the microsomal CLint at 1 µM in data set [2] is above 300 µL/min/mg. The IC50 in data set [3] is 6.5 µM.

In data set [1], `O=C1NCC[C@@](c2cccc(-c3cc(C(F)(F)F)c[nH]c3=O)c2)(C2CC2)O1` yielded a logD at 2 h of 2.1. In data set [2], the microsomal CLint at 1 µM came out at 35 µL/min/mg. In addition, in data set [3], the IC50 came out at 8.2 µM.

`C[C@H]1CCCN(Cc2cc(C(F)(F)F)c3nn(-c4cccc([C@@]5(C)CCNC(=O)C5)c4)c(=O)n3c2)C1` had a log distribution coefficient (logD) at 2 h in data set [1] of 3.4. Besides, the microsomal CLint at 1 µM in data set [2] was 230 µL/min/mg. In data set [3], the IC50 is 37 µM.

Consider `C[C@H]1CCCN(Cc2cc(C(F)(F)F)c3nn(-c4cccc([C@@]5(C6CC6)CCNC(=O)O5)c4)c(=O)n3c2)C1`, for which, in data set [1], the logD at 2 h is 3.8. Further, in data set [2], the microsomal CLint at 1 µM is above 300 µL/min/mg. Besides, the IC50 in data set [3] came out at 7.8 µM.

The compound `CC[C@]1(c2cccc(NC(=O)c3cc(C)nc(C4CC4)n3)c2)CCNC(=O)O1` showed a logD at 2 h in data set [1] of 2.9. Besides, the microsomal CLint at 1 µM in data set [2] was determined as 54 µL/min/mg. Further, the IC50 in data set [3] was above 100 µM.

`C[C@H]1CCCN(Cc2cc(C(F)(F)F)c3nn(-c4cccc(C5(C)CC(=O)NC(=O)C5)c4)c(=O)n3c2)C1`: in data set [1], the pH-dependent lipophilicity (logD) at 2 h was found to be 3.2. In data set [2], the microsomal CLint at 1 µM was above 300 µL/min/mg. In data set [3], this compound returned an IC50 of 6.6 µM.

In turn, `CC1CC(c2cccc(-n3nc4c(C(F)(F)F)cc(CN5CCC[C@H](C)C5)cn4c3=O)c2)(n2cccn2)C1` (some centres not stated) showed a logD at 2 h in data set [1] of 5.3. Moreover, the microsomal CLint at 1 µM in data set [2] is above 300 µL/min/mg. Besides, the IC50 in data set [3] is above 10 µM.

Consider `C[C@H]1CCCN(Cc2cc(C(F)(F)F)c3nn(-c4cccc([C@]5(c6nncn6C)C[C@@H](C)C5)c4)c(=O)n3c2)C1`, for which, in data set [1], the logD at 2 h was 3.9. The microsomal CLint at 1 µM in data set [2] is 160 µL/min/mg. In data set [3], it took 0.011 µM to reach half-maximal inhibition (IC50).

On to `C[C@H]1CCCN(Cc2cc(C(F)(F)F)c3nn(-c4cccc([C@]5(C6CC6)CCNC(=O)O5)c4)c(=O)n3c2)C1`, for which, in data set [1], the logD at 2 h turned out to be 3.7. The microsomal CLint at 1 µM in data set [2] stood at 260 µL/min/mg. For the same compound, in data set [3], half-maximal inhibition (IC50) was put at 0.007 µM.

`Cc1cc(C(=O)Nc2cccc([C@]3(C)CCNC(=O)C3)c2)nc(C2CC2)n1` yielded a logD at 2 h in data set [1] of 2.7. Also, the microsomal CLint at 1 µM in data set [2] amounted to 34 µL/min/mg. Moreover, it took 28 µM to reach half-maximal inhibition in data set [3] (IC50).

In data set [1], `Cc1cc(C(=O)Nc2cccc([C@]3(c4nncn4C)C[C@@H](C)C3)c2)nc(C2CC2)n1` had a pH-dependent lipophilicity (logD) at 2 h of 3.2. Besides, the microsomal CLint at 1 µM in data set [2] worked out at 35 µL/min/mg. In data set [3], this compound had an IC50 of 0.16 µM.

Turning to `O=C1NCC[C@](c2cccc(-c3cc(C(F)(F)F)c[nH]c3=O)c2)(C2CC2)O1`, the log distribution coefficient (logD) at 2 h in data set [1] amounted to 2.2. Further, the microsomal CLint at 1 µM in data set [2] turned out to be 18 µL/min/mg. This compound had an IC50 in data set [3] of 0.091 µM.

In data set [1], `Cc1cc(C(=O)Nc2cccc([C@]3(C4CC4)CCNC(=O)O3)c2)nc(C2CC2)n1` registered a logD at 2 h of 3. The microsomal CLint at 1 µM in data set [2] came out at 25 µL/min/mg. Half-maximal inhibition in data set [3] (IC50) was put at 0.17 µM.

For the compound `Cc1cc(C(=O)Nc2cccc([C@@]3(C)CCNC(=O)C3)c2)nc(C2CC2)n1`, in data set [1], the log distribution coefficient (logD) at 2 h is 2.7. The microsomal CLint at 1 µM in data set [2] turned out to be 23 µL/min/mg. In data set [3], the IC50 was 33 µM.

The compound `Cc1cc(C(=O)Nc2cccc([C@@]3(C4CC4)CCNC(=O)O3)c2)nc(C2CC2)n1` showed a logD at 2 h in data set [1] of 3. For the same compound, the microsomal CLint at 1 µM in data set [2] worked out at 61 µL/min/mg. The half-maximal inhibitory concentration (IC50) in data set [3] is above 100 µM.

Regarding `Cc1cc(C(=O)Nc2cccc([C@@]3(C)CCNC(=O)O3)c2)nc(C2CC2)n1`, the logD at 2 h in data set [1] was 2.4. In addition, the microsomal CLint at 1 µM in data set [2] turned out to be 7.7 µL/min/mg. Besides, the IC50 in data set [3] was above 100 µM.

Compound `Cc1cc(C(=O)Nc2cccc([C@]3(C)CCNC(=O)O3)c2)nc(C2CC2)n1` registered a logD at 2 h in data set [1] of 2.5. In addition, the microsomal CLint at 1 µM in data set [2] was 5.9 µL/min/mg. In data set [3], the IC50 turned out to be 4.8 µM.

For the compound `Cn1cnnc1[C@]1(c2cccc(-n3nc4c(C(F)(F)F)cccn4c3=O)c2)C[C@H](C)C1`, the pH-dependent lipophilicity (logD) at 2 h in data set [1] turned out to be 2.7. In data set [2], the microsomal CLint at 1 µM came out at 48 µL/min/mg. This compound gave an IC50 in data set [3] of 0.23 µM.

For `C[C@H]1CCCN(Cc2cc(C(F)(F)F)c3nn(-c4cccc([C@]5(C)CCNC(=O)C5)c4)c(=O)n3c2)C1`, the logD at 2 h in data set [1] was 3.5. Moreover, in data set [2], the microsomal CLint at 1 µM is 170 µL/min/mg. The compound further had an IC50 in data set [3] of 1.2 µM.

The compound `CC[C@@]1(c2cccc(NC(=O)c3cc(C)nc(C4CC4)n3)c2)CCNC(=O)O1` came in with a logD at 2 h in data set [1] of 3. Also, the microsomal CLint at 1 µM in data set [2] stood at 27 µL/min/mg. In data set [3], this compound displayed an IC50 of 1.4 µM.

In data set [1], `C[C@H]1CCCN(Cc2cc(C(F)(F)F)c3nn(-c4cccc([C@]5(C(=O)N(C)C)C[C@@H](C)C5)c4)c(=O)n3c2)C1` showed a log distribution coefficient (logD) at 2 h of 4.9. The microsomal CLint at 1 µM in data set [2] was above 300 µL/min/mg. The compound also gave an IC50 in data set [3] of 2.1 µM.

In turn, `Cc1cc(C(=O)Nc2cccc(C3(C)CCNC(=O)N3C)c2)nc(C2CC2)n1` (racemic) yielded a logD at 2 h in data set [1] of 2.7. For the same compound, the microsomal CLint at 1 µM in data set [2] stood at 75 µL/min/mg. In data set [3], this compound gave an IC50 above 100 µM.

Take `Cc1cc(C(=O)Nc2cccc(C3(C)CCNC(=O)N3)c2)nc(C2CC2)n1` (racemic): the logD at 2 h in data set [1] amounted to 2.4. For the same compound, the microsomal CLint at 1 µM in data set [2] is 6.6 µL/min/mg. Moreover, the IC50 in data set [3] was above 100 µM.

On to `Cc1cc(C(=O)Nc2cccc(C3(C)CNC(=O)O3)c2)nc(C2CC2)n1` (single isomer, unassigned; 14), for which the logD at 2 h in data set [1] turned out to be 2.7. Besides, the microsomal CLint at 1 µM in data set [2] was determined as 16 µL/min/mg. In data set [3], this compound registered an IC50 above 100 µM.

`Cc1cc(C(=O)Nc2cccc(C3(C)CNC(=O)O3)c2)nc(C2CC2)n1` (single isomer, unassigned; 15) came in with a logD in data set [1] (octanol/water, pH 7.4, 2 h, 2 h) of 2.6. In addition, in data set [2] (microsomes, 0.5 h, 1 µM), the CLH turned out to be 10 µL/min/mg. Further, the IC50 in data set [3] was above 100 µM.

The values above are taken from ChEMBL document CHEMBL5576144, “Accelerated Discovery of Carbamate Cbl-b Inhibitors Using Generative AI Models and Structure-Based Drug Design” (J Med Chem, 2024).
